Experimental data published in ChEMBL document CHEMBL1201862, “PubChem BioAssay data set” (2004).
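48-hour exposure; five concentrations; linearly interpolated endpoints. At the GI50, growth is halved.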 Activity calls are given as the source filed them. Rule as the data show it: active = GI50 up to about 1.1 µM and inactive = higher.

Key:
Assay in all cases: DTP human tumour cell line panel, 48 h
[1] = system: ACHN
[2] = system: COLO 205
[3] = system: HCC 2998
[4] = system: HCT-116
[5] = system: HOP-62
[6] = system: HT-29
[7] = system: K562
[8] = system: KM12
[9] = system: NCI-H23
[10] = system: OVCAR-4
[11] = system: RXF 393
[12] = system: SF-295
[13] = system: SK-OV-3
[14] = system: SN12C
[15] = system: SNB-19
[16] = system: SNB-75
[17] = system: SW-620
[18] = system: UACC-62
[19] = system: SF-268

SMILES	GI50 [1]	GI50 [2]	GI50 [3]	GI50 [4]	GI50 [5]	GI50 [6]	GI50 [7]	GI50 [8]	GI50 [9]	GI50 [10]	GI50 [11]	GI50 [12]	GI50 [13]	GI50 [14]	GI50 [15]	GI50 [16]	GI50 [17]	GI50 [18]	GI50 [19]
CC[P+](C)(Cc1ccccc1)c1ccccc1 (configuration not stated)	> 100 µM (inactive)	69.5 µM (inactive)	> 100 µM (inactive)	> 100 µM (inactive)	> 100 µM (inactive)	> 100 µM (inactive)	> 100 µM (inactive)	> 100 µM (inactive)	> 100 µM (inactive)	> 100 µM (inactive)	> 100 µM (inactive)	> 100 µM (inactive)	> 100 µM (inactive)	> 100 µM (inactive)	> 100 µM (inactive)	> 100 µM (inactive)	> 100 µM (inactive)	> 100 µM (inactive)	–
CC(=O)c1cccc(C)c1C(=O)O	> 100 µM (inactive)	> 100 µM (inactive)	> 100 µM (inactive)	> 100 µM (inactive)	> 100 µM (inactive)	> 100 µM (inactive)	> 100 µM (inactive)	> 100 µM (inactive)	> 100 µM (inactive)	> 100 µM (inactive)	> 100 µM (inactive)	> 100 µM (inactive)	> 100 µM (inactive)	> 100 µM (inactive)	> 100 µM (inactive)	> 100 µM (inactive)	> 100 µM (inactive)	> 100 µM (inactive)	> 100 µM (inactive)
O=C1C=C(c2ccccc2)NC1(c1ccccc1)c1cc(-c2ccccc2)[nH]c1-c1ccccc1 (configuration not stated)	> 100 µM (inactive)	> 100 µM (inactive)	> 100 µM (inactive)	> 100 µM (inactive)	2.21 µM (inactive)	> 100 µM (inactive)	> 100 µM (inactive)	> 100 µM (inactive)	> 100 µM (inactive)	> 100 µM (inactive)	0.182 µM (active)	> 100 µM (inactive)	> 100 µM (inactive)	> 100 µM (inactive)	> 100 µM (inactive)	> 100 µM (inactive)	> 100 µM (inactive)	> 100 µM (inactive)	–
CC1=C(NC(=O)C(=O)NNC(=O)c2ccncc2)C(=O)c2ccccc2C1=O	16.1 µM (inactive)	17.3 µM (inactive)	16.9 µM (inactive)	11.4 µM (inactive)	17.5 µM (inactive)	15.5 µM (inactive)	24.1 µM (inactive)	15.3 µM (inactive)	6.32 µM (inactive)	13.8 µM (inactive)	15.4 µM (inactive)	10.8 µM (inactive)	28.1 µM (inactive)	11.8 µM (inactive)	17.5 µM (inactive)	17.4 µM (inactive)	15.7 µM (inactive)	2.52 µM (inactive)	23.6 µM (inactive)
O=C1C(Cl)=C(Cl)C(=O)N1c1cccc(C(F)(F)F)c1	> 100 µM (inactive)	> 79.3 µM (inactive)	> 100 µM (inactive)	> 100 µM (inactive)	> 100 µM (inactive)	> 100 µM (inactive)	> 54.5 µM (inactive)	> 100 µM (inactive)	> 100 µM (inactive)	> 100 µM (inactive)	34 µM (inactive)	> 100 µM (inactive)	> 100 µM (inactive)	> 100 µM (inactive)	> 100 µM (inactive)	> 100 µM (inactive)	> 100 µM (inactive)	> 100 µM (inactive)	> 100 µM (inactive)
CC(=O)N1CC2Nc3ccccc3C2CC1CO (configuration not stated)	> 100 µM (inactive)	> 100 µM (inactive)	> 100 µM (inactive)	> 100 µM (inactive)	> 100 µM (inactive)	> 100 µM (inactive)	> 100 µM (inactive)	> 100 µM (inactive)	> 100 µM (inactive)	> 100 µM (inactive)	> 100 µM (inactive)	> 100 µM (inactive)	> 100 µM (inactive)	> 100 µM (inactive)	> 100 µM (inactive)	17.7 µM (inactive)	> 100 µM (inactive)	> 100 µM (inactive)	> 100 µM (inactive)
NC(=O)c1cn(Cc2ccccc2)c(=O)n1Cc1ccccc1	> 100 µM (inactive)	> 100 µM (inactive)	> 100 µM (inactive)	> 100 µM (inactive)	> 100 µM (inactive)	> 100 µM (inactive)	> 100 µM (inactive)	> 100 µM (inactive)	> 100 µM (inactive)	> 100 µM (inactive)	> 100 µM (inactive)	> 100 µM (inactive)	> 100 µM (inactive)	> 100 µM (inactive)	> 100 µM (inactive)	> 100 µM (inactive)	> 100 µM (inactive)	> 100 µM (inactive)	> 100 µM (inactive)
[N-]=[N+]=C1C(=O)C2CC3CC(C2)CC1C3	> 100 µM (inactive)	> 100 µM (inactive)	> 100 µM (inactive)	> 100 µM (inactive)	> 100 µM (inactive)	> 100 µM (inactive)	> 100 µM (inactive)	> 100 µM (inactive)	> 100 µM (inactive)	> 100 µM (inactive)	> 100 µM (inactive)	> 100 µM (inactive)	> 100 µM (inactive)	> 100 µM (inactive)	> 100 µM (inactive)	> 100 µM (inactive)	64 µM (inactive)	> 100 µM (inactive)	> 100 µM (inactive)
CCCNC(=O)C1C(=O)C(=O)N(CCC)C1=O (configuration not stated)	> 100 µM (inactive)	> 100 µM (inactive)	> 100 µM (inactive)	> 100 µM (inactive)	> 100 µM (inactive)	> 100 µM (inactive)	> 100 µM (inactive)	> 100 µM (inactive)	> 100 µM (inactive)	> 100 µM (inactive)	> 100 µM (inactive)	–	> 100 µM (inactive)	> 100 µM (inactive)	> 100 µM (inactive)	> 100 µM (inactive)	> 100 µM (inactive)	> 100 µM (inactive)	> 100 µM (inactive)
Cc1ccc(C2OC(COCc3ccc(Cl)cc3)C(OCc3ccc(Cl)cc3)C2O)cc1 (configuration not stated)	15.1 µM (inactive)	22.8 µM (inactive)	19.3 µM (inactive)	11.5 µM (inactive)	–	7.69 µM (inactive)	4.42 µM (inactive)	9.38 µM (inactive)	6.44 µM (inactive)	17.8 µM (inactive)	3.19 µM (inactive)	12.3 µM (inactive)	2.63 µM (inactive)	3.65 µM (inactive)	17.8 µM (inactive)	4.37 µM (inactive)	14.3 µM (inactive)	4.42 µM (inactive)	–
COC(=O)NC12CC3CC(CC(F)(C3)C1)C2	> 100 µM (inactive)	> 100 µM (inactive)	> 100 µM (inactive)	> 100 µM (inactive)	> 100 µM (inactive)	> 100 µM (inactive)	> 100 µM (inactive)	> 100 µM (inactive)	> 100 µM (inactive)	–	> 100 µM (inactive)	–	> 100 µM (inactive)	–	> 100 µM (inactive)	19.7 µM (inactive)	> 100 µM (inactive)	> 100 µM (inactive)	–
Oc1cccc(C2SCc3nc4ccccc4n32)c1 (configuration not stated)	33.8 µM (inactive)	> 100 µM (inactive)	> 100 µM (inactive)	67.9 µM (inactive)	–	> 100 µM (inactive)	16.9 µM (inactive)	73.3 µM (inactive)	38.8 µM (inactive)	–	78.7 µM (inactive)	39.1 µM (inactive)	> 100 µM (inactive)	82.2 µM (inactive)	> 100 µM (inactive)	4.17 µM (inactive)	> 100 µM (inactive)	77.1 µM (inactive)	73.6 µM (inactive)
CCOC(C)OCC#CCCBr (configuration not stated)	> 100 µM (inactive)	> 100 µM (inactive)	> 100 µM (inactive)	> 100 µM (inactive)	> 100 µM (inactive)	> 100 µM (inactive)	59.7 µM (inactive)	> 100 µM (inactive)	> 100 µM (inactive)	> 100 µM (inactive)	> 100 µM (inactive)	> 100 µM (inactive)	> 100 µM (inactive)	> 100 µM (inactive)	> 100 µM (inactive)	55.3 µM (inactive)	> 100 µM (inactive)	> 100 µM (inactive)	> 100 µM (inactive)
Cc1c(C(=O)/C=C/c2ccc3c(c2)OCO3)[n+]([O-])c2ccccc2[n+]1[O-]	35.6 µM (inactive)	27.7 µM (inactive)	23.1 µM (inactive)	29.4 µM (inactive)	> 100 µM (inactive)	26.4 µM (inactive)	33 µM (inactive)	31.9 µM (inactive)	19.5 µM (inactive)	40.6 µM (inactive)	23 µM (inactive)	28.7 µM (inactive)	21.3 µM (inactive)	23 µM (inactive)	56 µM (inactive)	26.1 µM (inactive)	37.2 µM (inactive)	27.2 µM (inactive)	52.6 µM (inactive)
Cc1cccc(N(CC(=O)O)S(=O)(=O)c2ccccc2)c1	> 100 µM (inactive)	> 100 µM (inactive)	> 100 µM (inactive)	–	–	> 100 µM (inactive)	> 100 µM (inactive)	> 100 µM (inactive)	> 100 µM (inactive)	> 100 µM (inactive)	> 100 µM (inactive)	> 100 µM (inactive)	> 100 µM (inactive)	> 100 µM (inactive)	> 100 µM (inactive)	> 100 µM (inactive)	> 100 µM (inactive)	> 100 µM (inactive)	> 100 µM (inactive)
